# Data: patent US20170304388A1, “NEW INDICATION OF CARDIOVASCULAR DRUGS FOR PREPARATION OF CANCER INHIBITION PHARMACEUTICAL COMPOSITION” (LAUNX BIOMEDICAL CO., LTD., priority 2014, published 2017)
# Legend:
# Assay type in all cases: cell-based
# [1] = tested on: TOV-21G; assay: Cell viability analysis (WST-1), TOV-21G; conditions: Table 4, repeated experiments, drug 10 μM
# Protocol: (§1) Subculture the different types of cancer cells. The cancer cells includes lung cancer, gastric cancer, hepatic cancer, colon cancer, skin cancer, cervical cancer, prostate cancer, bladder cancer, breast cancer, leukemia, pancreatic cancer, ovarian cancer, tongue cancer, osteosarcoma, and renal cancer. The cell numbers were counted and reseed as 2×10^6 in cell culture plate/flask. Then, the culture medium for culturing the cell lines was added to a volume of 10 ml, and the cells were cultured for 2-3 days. Then, the cells were suspended for loading into 96-well plates. The cell number was 3000 cells and the volume of the culture medium was 100 ul each well.
# (§2) Removing the original culture medium from 96-well plate. Then add 100 μl of commercially drug at a concentration of 10 μM per well. After 72 hours, add the diluted WST-1 reagent to the well with 100 μl/well, and the diluted WST-1 reagent was acquired from the dilution of 9:1 medium and WST-1 stock reagent. Finally, the total volume of each well are 200 μl/well. Culture the 96-well plate at 37° C. for 30 to 90 minutes. Detecting and calculating the survival rate of each cancer cells with an ELISA reader at OD450 nm. The lower viability of cancer cells represents better inhibition effect via the drugs. Otherwise, the higher viability of cancer cells represents worse inhibition effect via the drugs.
# (§3) According to the above mentioned cardiovascular drugs for cancer growth inhibition in Table 3, the inventors took the repeat experiments for the cardiovascular drugs to check the growth inhibitory effects of cancer cells by the cardiovascular drugs. […] 4.
# [2] = tested on: AsPC-1; assay: Cell viability analysis (WST-1), AsPC-1; conditions: Table 4, repeated experiments, drug 10 μM
# Protocol: as §1, §2, §3
# [3] = tested on: H1650 (Lung Adenocarcinoma); assay: Cell viability analysis (WST-1), H1650; conditions: Table 4, repeated experiments, drug 10 μM
# [4] = tested on: A549 (Lung Adenocarcinoma); assay: Cell viability analysis (WST-1), A549; conditions: Table 4, repeated experiments, drug 10 μM
# [5] = tested on: C-33A; assay: Cell viability analysis (WST-1), C-33A; conditions: Table 4, repeated experiments, drug 10 μM
# Protocol: as §1, §2, §3
# [6] = tested on: MKN-45 (Gastric Adenocarcinoma); assay: Cell viability analysis (WST-1), MKN-45; conditions: Table 4, repeated experiments, drug 10 μM
# [7] = tested on: cancer cell lines; assay: Growth inhibitory effects on the panel of cancer cell lines; conditions: drug 10 μM, 72 hours, WST-1
# Text: For cell viability analysis, the cardiovascular drugs include peripheral vasodilator reaming enhancer, angiotensin converting agent inhibitor, hypotension and shock therapeutic agent, diuretic, antiarrhythmic agent, antiarralciton drug, antihypertensive agent, anticoagulant thrombolytic agent, cardiac tonic, intravenous (hemorrhoids) therapeutic agent, are used to test the inhibition effect of cancer cell.
# [8] = tested on: 786-O; assay: Cell viability analysis (WST-1), 786-O; conditions: Table 4, repeated experiments, drug 10 μM
# Protocol: as §1, §2, §3
# [9] = tested on: Hep3B; assay: Cell viability analysis (WST-1), Hep3B; conditions: Table 4, repeated experiments, drug 10 μM
# Protocol: as §1, §2, §3
# [10] = tested on: LoVo (Colorectal Adenocarcinoma); assay: Cell viability analysis (WST-1), LoVo; conditions: Table 4, repeated experiments, drug 10 μM
# [11] = tested on: BCC; assay: Cell viability analysis (WST-1), BCC; conditions: Table 4, repeated experiments, drug 10 μM
# [12] = tested on: T24; assay: Cell viability analysis (WST-1), T24; conditions: Table 4, repeated experiments, drug 10 μM
# Protocol: as §1, §2, §3
# [13] = tested on: SAS; assay: Cell viability analysis (WST-1), SAS; conditions: Table 4, repeated experiments, drug 10 μM
# Protocol: as §1, §2, §3
# [14] = tested on: HCT116 (Colorectal Carcinoma); assay: Cell viability analysis (WST-1), HCT116; conditions: Table 4, repeated experiments, drug 10 μM
# [15] = tested on: MCF7 (Mammary Gland, Adenocarcinoma); assay: Cell viability analysis (WST-1), MCF7; conditions: Table 4, repeated experiments, drug 10 μM
# [16] = tested on: MDA-MB231; assay: Cell viability analysis (WST-1), MDA-MB231; conditions: Table 4, repeated experiments, drug 10 μM
# [17] = tested on: NIH-OVCAR-3; assay: Cell viability analysis (WST-1), NIH-OVCAR-3; conditions: Table 4, repeated experiments, drug 10 μM
# Protocol: as §1, §2, §3
# [18] = tested on: HepG2 (Hepatocellular Carcinoma); assay: Cell viability analysis (WST-1), HepG2; conditions: Table 4, repeated experiments, drug 10 μM
# [19] = tested on: A375 (Amelanotic Melanoma); assay: Cell viability analysis (WST-1), A375; conditions: Table 4, repeated experiments, drug 10 μM
# [20] = tested on: BxPC-3; assay: Cell viability analysis (WST-1), BxPC-3; conditions: Table 4, repeated experiments, drug 10 μM
# Protocol: as §1, §2, §3
# [21] = tested on: HeLa (Cervix Adenocarcinoma); assay: Cell viability analysis (WST-1), HeLa; conditions: Table 4, repeated experiments, drug 10 μM
# [22] = tested on: U2OS; assay: Cell viability analysis (WST-1), U2OS; conditions: Table 4, repeated experiments, drug 10 μM
# Protocol: as §1, §2, §3
# [23] = tested on: PC3 (Prostate Adenocarcinoma); assay: Cell viability analysis (WST-1), PC3; conditions: Table 4, repeated experiments, drug 10 μM
# [24] = tested on: TSGH-8301 (Urinary Bladder Carcinoma); assay: Cell viability analysis (WST-1), TSGH-8301; conditions: Table 4, repeated experiments, drug 10 μM
# [25] = tested on: AGS (Gastric Adenocarcinoma); assay: Cell viability analysis (WST-1), AGS; conditions: Table 4, repeated experiments, drug 10 μM
structure (smiles),measurement,setting,value
"CC(C)c1c(C(=O)Nc2ccccc2)c(-c2ccccc2)c(-c2ccc(F)cc2)n1CC[C@@H](O)C[C@@H](O)CC(=O)[O-].CC(C)c1c(C(=O)Nc2ccccc2)c(-c2ccccc2)c(-c2ccc(F)cc2)n1CC[C@@H](O)C[C@@H](O)CC(=O)[O-].[Ca+2] [Atorvastatin calcium (Lipitor), Atorvastatin calcium]","survival rate (viability) of cancer cells, TOV-21G",[1]; 72 hours,34.04
same,"survival rate (viability) of cancer cells, AsPC-1",[2]; 72 hours,81.1
same,"survival rate (viability) of cancer cells, H1650","[3]; 72 hours, WST-1",69.55
same,"survival rate (viability) of cancer cells, A549","[4]; 72 hours, WST-1",90.1462
same,"survival rate (viability) of cancer cells, C-33A",[5]; 72 hours,96.95
same,"survival rate (viability) of cancer cells, MKN-45","[6]; 72 hours, WST-1",84.18
same,inhibition effect on different cancer cell lines (in words),[7],significant inhibition effect
same,"survival rate (viability) of cancer cells, 786-O",[8]; 72 hours,32.54
same,"survival rate (viability) of cancer cells, Hep3B",[9]; 72 hours,91.86
same,"survival rate (viability) of cancer cells, LoVo","[10]; 72 hours, WST-1",103.0307
same,"survival rate (viability) of cancer cells, BCC",[11]; 72 hours,41.49
same,"survival rate (viability) of cancer cells, T24",[12]; 72 hours,78.47
same,"survival rate (viability) of cancer cells, SAS",[13]; 72 hours,76.29
same,"survival rate (viability) of cancer cells, HCT116","[14]; 72 hours, WST-1",82.55
same,"survival rate (viability) of cancer cells, MCF-7","[15]; 72 hours, WST-1",79.08
same,"survival rate (viability) of cancer cells, MDA-MB231",[16]; 72 hours,47.84
same,"survival rate (viability) of cancer cells, NIH-OVCAR-3",[17]; 72 hours,98.3
same,"survival rate (viability) of cancer cells, HepG2","[18]; 72 hours, WST-1",95.92
same,"survival rate (viability) of cancer cells, A375","[19]; 72 hours, WST-1",23.01
same,"survival rate (viability) of cancer cells, BxPC-3",[20]; 72 hours,81.03
same,"survival rate (viability) of cancer cells, HeLa","[21]; 72 hours, WST-1",78.64
same,"survival rate (viability) of cancer cells, U2OS",[22]; 72 hours,86.25
same,"survival rate (viability) of cancer cells, PC-3","[23]; 72 hours, WST-1",56.4832
same,"survival rate (viability) of cancer cells, TSGH-8301","[24]; 72 hours, WST-1",70.59
same,"survival rate (viability) of cancer cells, AGS","[25]; 72 hours, WST-1",31.48
COCCOC(=O)C1=C(C)NC(C)=C(C(=O)OC/C=C/c2ccccc2)C1c1cccc([N+](=O)[O-])c1 (centres unmarked) [Cilnidipine],viability at 10 µM,"[1]; Homo sapiens, TOV21G, 72 h, read-out: survival rate (viability) of cancer cells, TOV-21G",62.9%
same,viability at 10 µM,"[2]; Homo sapiens, ASPC1, 72 h, read-out: survival rate (viability) of cancer cells, AsPC-1",57.6%
same,viability at 10 µM,"[3]; Homo sapiens, NCI-H1650, 72 h, WST-1, read-out: survival rate (viability) of cancer cells, H1650",69%
same,viability at 10 µM,"[4]; Homo sapiens, A549, 72 h, WST-1, read-out: survival rate (viability) of cancer cells, A549",67.8%
same,viability at 10 µM,"[5]; Homo sapiens, C-33-A, 72 h, read-out: survival rate (viability) of cancer cells, C-33A",93%
same,viability at 10 µM,"[6]; Homo sapiens, MKN-45, 72 h, WST-1, read-out: survival rate (viability) of cancer cells, MKN-45",105%
same,inhibition effect on different cancer cell lines (in words),[7],significant inhibition effect
same,viability at 10 µM,"[8]; Homo sapiens, 786-0, 72 h, read-out: survival rate (viability) of cancer cells, 786-O",86.7%
same,viability at 10 µM,"[9]; Homo sapiens, Hep3B, 72 h, read-out: survival rate (viability) of cancer cells, Hep3B",92.7%
same,viability at 10 µM,"[10]; Homo sapiens, LoVo, 72 h, WST-1, read-out: survival rate (viability) of cancer cells, LoVo",53.7%
same,viability at 10 µM,"[11]; BCC, 72 h, read-out: survival rate (viability) of cancer cells, BCC",60.2%
same,viability at 10 µM,"[12]; Homo sapiens, T-24, 72 h, read-out: survival rate (viability) of cancer cells, T24",108%
same,viability at 10 µM,"[13]; 72 h, read-out: survival rate (viability) of cancer cells, SAS",38.9%
same,viability at 10 µM,"[14]; Homo sapiens, HCT-116, 72 h, WST-1, read-out: survival rate (viability) of cancer cells, HCT116",88.6%
same,viability at 10 µM,"[15]; Homo sapiens, MCF7, 72 h, WST-1, read-out: survival rate (viability) of cancer cells, MCF-7",64.6%
same,viability at 10 µM,"[16]; Homo sapiens, MDA-MB-231, 72 h, read-out: survival rate (viability) of cancer cells, MDA-MB231",86.3%
same,viability at 10 µM,"[17]; Homo sapiens, OVCAR-3, 72 h, read-out: survival rate (viability) of cancer cells, NIH-OVCAR-3",75.9%
same,viability at 10 µM,"[18]; Homo sapiens, HepG2, 72 h, WST-1, read-out: survival rate (viability) of cancer cells, HepG2",77.1%
same,viability at 10 µM,"[19]; Homo sapiens, A-375, 72 h, WST-1, read-out: survival rate (viability) of cancer cells, A375",47.1%
same,viability at 10 µM,"[20]; Homo sapiens, BXPC-3, 72 h, read-out: survival rate (viability) of cancer cells, BxPC-3",68.7%
same,viability at 10 µM,"[21]; Homo sapiens, HeLa, 72 h, WST-1, read-out: survival rate (viability) of cancer cells, HeLa",64.3%
same,viability at 10 µM,"[22]; Homo sapiens, U2OS, 72 h, read-out: survival rate (viability) of cancer cells, U2OS",43.1%
same,viability at 10 µM,"[23]; 72 h, WST-1, read-out: survival rate (viability) of cancer cells, PC-3",61.4%
same,viability at 10 µM,"[24]; 72 h, WST-1, read-out: survival rate (viability) of cancer cells, TSGH-8301",95.9%
same,viability at 10 µM,"[25]; 72 h, WST-1, read-out: survival rate (viability) of cancer cells, AGS",76.9%
